In brackets after ≈: the same amount, converted by molar mass. Like-named read-outs stand apart in the source and are kept apart here. Ends that are not written are not given here. Peptide text beside a SMILES is read from it.
What was measured:
Format in all cases: cell-based
[1] = test system: Escherichia coli—ATCC 25922 “wild type”
How it was run: (§1)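 MIC/MBC of cationic antimicrobial peptides by a broth method adapted for cationic peptides, against E. coli ATCC 25922 and clinical MDR isolates (ESBL, KPC, NDM). Some peptides made as TFA or acetate salts. Each run on a different day with multiple replicates.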

[2] = test system: Escherichia coli—Carbapenemase-producing organism; Klebsiella pneumoniae carbapenemase
How it was run: as §1

[3] = test system: Escherichia coli—Carbapenemase-producing organism; New-Dehli Metallobetalactamase
How it was run: as §1

[4] = test system: Staphylococcus aureus—ATCC 29213 “wild type”
Experimental: (§2) Independent experiments were conducted with different strains of Staphylococcus aureus—ATCC 29213 “wild type”; and Staphylococcus aureus—Methicillin resistant Staphylococcus aureus.
(§3) The ATCC (American Type Culture Collection) strains received from Cedarlane. Multi drug resistant (MDR) strains, as clinical isolates, were received from the laboratory of Dr. Linda Hoang.
(§4) Putative antimicrobial peptides were synthesized by GeneScript. A-list antimicrobial peptides re-synthesized by GeneScript. P2_CCH, P5_CCH, and P5_CCH_A19K were each synthesized under two conditions: standard synthesis using TFA, and the other with TFA-removal using acetate as a counter-ion. A MIC method, adapted for use with cationic antimicrobial peptides, was used to evaluate MIC antimicrobial activity (Hancock 1999).
(§5) The following data are presented to show the activity (MIC/MBC in μg/mL) of certain antimicrobial peptides described herein relative to a modified/synthetic version having a specified substitution. While data presented in tables above may be presented again, or may be represented in data provided in the tables below, such duplication is believed to assist the reader in readily noting comparisons. Different Run Numbers noted in the following tables denotes experiments conducted on different days, with each run reflecting multiple n values.

[5] = test system: Salmonella Enteritidis
Text: as §4, §5

[6] = test system: Salmonella Heidelberg (MDR)
Text: as §3, §4, §5

[7] = test system: Escherichia coli: ATCC 9723H; details: ATCC 9723
How it was run: (§6)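 MIC and MBC were run by broth microdilution adapted from Hancock cationic-AMP and CLSI methods, in Mueller Hinton broth (+5% lysed horse blood for S. pyogenes) at about 5×10^5 CFU/mL. Peptides came from two-fold 10× stocks (2560–5 μg/mL) and were incubated 16-24 h at 37 °C. For MBC, the MIC well and two more-concentrated wells were plated on MHA for 24 h at 37 °C.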

[8] = test system: Mycobacterium smegmatis (MC^2155); details: Mycobacterium (MC^2155)
How it was run: as §6

[9] = test system: Pseudomonas aeruginosa: ATCC 10148; details: ATCC 10148
How it was run: as §6

[10] = test system: Staphylococcus aureus: ATCC 6538P; details: ATCC 6538
How it was run: as §6

[11] = test system: Streptococcus pyogenes: unknown strain, hospital isolate; details: unknown strain, hospital isolate
How it was run: as §6

[12] = test system: Escherichia coli—Extended spectrum beta-lactamase
How it was run: as §1

[13] = test system: Methicillin resistant Staphylococcus aureus
Experimental: as §2, §3, §4, §5

[14] = Salmonella Heidelberg (MDR), Run No. 2
[15] = Salmonella Heidelberg (MDR), Run No. 3

Compound | MIC ([4]; ATCC 29213) | MIC [5] | MIC [6] | MBC [7] | MIC [7] | MIC [8] | MBC [10] | MIC [10] | MBC [11] | MIC [11] | Minimum Inhibitory Concentration (MIC) [1] | Minimum Inhibitory Concentration (MIC) [2] | Minimum Inhibitory Concentration (MIC) [3] | Minimum Inhibitory Concentration (MIC) [12] | Minimum Inhibitory Concentration (MIC) ([13]; Methicillin resistant) | Minimum Inhibitory Concentration (MIC) ([4]; ATCC 29213) | Minimum Inhibitory Concentration (MIC) [5] | Minimum Inhibitory Concentration (MIC) [6] | other results
IQRLPVIKMLKLWKLELKII [P13_CCH_N8K_E18K] | 256 µg/mL | 16 µg/mL | 32 µg/mL | – | – | – | – | – | – | – | – | – | – | – | – | – | – | – | MIC [1]: 32 µg/mL; MIC [2]: 64 µg/mL; MIC ([3]; CPO E. coli (NDM), Run No. 4): ~64? μg/mL; MIC ([3]; CPO E. coli (NDM), Run No. 5): ~64? μg/mL; MIC [6, 14]: ~16? μg/mL; MIC [6, 15]: ~16? μg/mL
IQRLPVINMLKLWKLELEII [Peptide P13_CCH] | 128 µg/mL | 16 µg/mL | 32 µg/mL | >256 µg/mL | >256 µg/mL | >256 µg/mL | >256 µg/mL | >256 µg/mL | >256 µg/mL | >256 µg/mL | – | – | – | – | – | – | – | – | MBC [8]: >256 µg/mL; MBC [9]: >256 µg/mL; MIC [9]: >256 µg/mL; MIC [3]: 256 µg/mL; MIC [6, 14]: ~32? μg/mL; MIC [6, 15]: ~32? μg/mL
CC[C@H](C)[C@H](NC(=O)[C@@H](NC(=O)[C@@H]1CCCN1C(=O)[C@H](Cc1ccccc1)NC(=O)[C@@H](N)Cc1ccccc1)[C@@H](C)CC)C(=O)N[C@@H](C)C(=O)N[C@@H](CCCNC(=N)N)C(=O)N[C@@H](CC(C)C)C(=O)N[C@@H](C)C(=O)N[C@@H](C)C(=O)N[C@@H](CCCCN)C(=O)N[C@H](C(=O)N[C@H](C(=O)N1CCC[C@H]1C(=O)N[C@@H](CO)C(=O)N[C@@H](CC(C)C)C(=O)N[C@H](C(=O)N[C@@H](CS)C(=O)N[C@@H](C)C(=O)N[C@H](C(=O)N[C@H](C(=O)N[C@@H](CCCCN)C(=O)N[C@@H](CCCCN)C(=O)N[C@@H](CS)C(=O)O)[C@@H](C)O)C(C)C)C(C)C)[C@@H](C)CC)C(C)C [Peptide P5_CCH] (H-FFPIIARLAAKVIPSLVCAVTKKC-OH; N-terminus and C-terminus assumed) | – | – | – | 32 µg/mL (≈ 12.4 µM) | 16 µg/mL (≈ 6.18 µM) | 2 µg/mL (≈ 0.772 µM) | 16 µg/mL (≈ 6.18 µM) | 4 µg/mL (≈ 1.54 µM) | 128 µg/mL (≈ 49.4 µM) | 128 µg/mL (≈ 49.4 µM) | 4 to 16 µg/mL | 4 to 16 µg/mL | 4 to 32 µg/mL | 8 to 32 µg/mL | 2 to 8 µg/mL | 4 to 8 µg/mL | 64 to 128 µg/mL | 32 to 128 µg/mL | MBC [8]: >256 µg/mL
ALVAKIQKFPVFNTLKLCKLKLRII [P11_CCH_E21K_E23R] | 128 µg/mL | 64 µg/mL | 128 µg/mL | – | – | – | – | – | – | – | – | – | – | – | – | – | – | – | MBC [1]: 32 µg/mL; MBC [3]: 128 µg/mL
CC[C@H](C)[C@H](NC(=O)[C@H](Cc1ccccc1)NC(=O)[C@@H]1CCCN1C(=O)[C@H](CC(C)C)NC(=O)[C@@H](N)Cc1ccccc1)C(=O)N[C@@H](C)C(=O)N[C@@H](CCCNC(=N)N)C(=O)N[C@@H](CC(C)C)C(=O)N[C@@H](C)C(=O)N[C@@H](C)C(=O)N[C@@H](CCCCN)C(=O)N[C@H](C(=O)N[C@@H](Cc1ccccc1)C(=O)N1CCC[C@H]1C(=O)N[C@@H](CO)C(=O)N[C@H](C(=O)N[C@H](C(=O)N[C@@H](CS)C(=O)N[C@@H](CO)C(=O)N[C@H](C(=O)N[C@H](C(=O)N[C@@H](CCCCN)C(=O)N[C@@H](CCCCN)C(=O)N[C@@H](CS)C(=O)O)[C@@H](C)O)C(C)C)[C@@H](C)CC)[C@@H](C)CC)C(C)C [Ran-4] (H-FLPFIARLAAKVFPSIICSVTKKC-OH; N-terminus and C-terminus assumed) | – | – | – | – | – | – | – | – | – | – | 2 to 4 µg/mL | 4 to 8 µg/mL | 4 to 8 µg/mL | 4 to 8 µg/mL | 64 to 128 µg/mL | 64 to 128 µg/mL | 16 to 32 µg/mL | 16 to 32 µg/mL | –
CC[C@H](C)[C@H](NC(=O)[C@H](CCCCN)NC(=O)[C@H](CCCCN)NC(=O)CNC(=O)[C@@H](NC(=O)[C@@H](NC(=O)[C@H](CCCCN)NC(=O)[C@@H](NC(=O)[C@@H](NC(=O)[C@H](CCC(=O)O)NC(=O)[C@H](Cc1c[nH]c2ccccc12)NC(=O)[C@H](CC(C)C)NC(=O)CN)[C@@H](C)O)[C@@H](C)CC)[C@@H](C)O)[C@@H](C)O)C(=O)N[C@@H](C)C(=O)N[C@@H](CC(C)C)C(=O)N[C@@H](CC(N)=O)C(=O)N[C@@H](CC(C)C)C(=O)N[C@@H](CC(C)C)C(=O)N[C@@H](CC(=O)O)C(=O)N[C@@H](CCCCN)C(=O)N[C@H](C(=O)N[C@@H](CCCCN)C(=O)N[C@@H](CS)C(=O)N[C@@H](CCCCN)C(=O)N[C@H](C(=O)N[C@@H](C)C(=O)NCC(=O)NCC(=O)N[C@@H](CS)C(=O)N1CCC[C@H]1C(=O)N1CCC[C@H]1C(=O)O)[C@@H](C)CC)[C@@H](C)CC [Peptide P6_CCH_S12K] (H-GLWETIKTTGKKIALNLLDKIKCKIAGGCPP-OH; N-terminus and C-terminus assumed) | – | – | – | – | – | – | – | – | – | – | 4 µg/mL | 4 µg/mL | 4 to 8 µg/mL | 4 µg/mL | 64 to 128 µg/mL | 64 to 128 µg/mL | 16 to 32 µg/mL | 16 to 32 µg/mL | MBC [1]: 4 µg/mL (≈ 1.21 µM); MIC [1]: 4 µg/mL (≈ 1.21 µM); MBC [12]: 4 µg/mL (≈ 1.21 µM); MIC [12]: 4 µg/mL (≈ 1.21 µM)
CC[C@H](C)[C@H](NC(=O)[C@H](CO)NC(=O)[C@H](CCCCN)NC(=O)CNC(=O)[C@@H](NC(=O)[C@@H](NC(=O)[C@H](CCCCN)NC(=O)[C@@H](NC(=O)[C@@H](NC(=O)[C@H](CCC(=O)O)NC(=O)[C@H](Cc1c[nH]c2ccccc12)NC(=O)[C@H](CC(C)C)NC(=O)CN)[C@@H](C)O)[C@@H](C)CC)[C@@H](C)O)[C@@H](C)O)C(=O)N[C@@H](C)C(=O)N[C@@H](CC(C)C)C(=O)N[C@@H](CC(N)=O)C(=O)N[C@@H](CC(C)C)C(=O)N[C@@H](CC(C)C)C(=O)N[C@@H](CC(=O)O)C(=O)N[C@@H](CCCCN)C(=O)N[C@H](C(=O)N[C@@H](CCCCN)C(=O)N[C@@H](CS)C(=O)N[C@@H](CCCCN)C(=O)N[C@H](C(=O)N[C@@H](C)C(=O)NCC(=O)NCC(=O)N[C@@H](CS)C(=O)N1CCC[C@H]1C(=O)N1CCC[C@H]1C(=O)O)[C@@H](C)CC)[C@@H](C)CC [Peptide P6_CCH] (H-GLWETIKTTGKSIALNLLDKIKCKIAGGCPP-OH; N-terminus and C-terminus assumed) | – | – | – | 16 to 64 µg/mL | 16 to 64 µg/mL | 2 µg/mL (≈ 0.612 µM) | 256 µg/mL (≈ 78.3 µM) | 128 to 256 µg/mL | 128 µg/mL (≈ 39.1 µM) | 128 µg/mL (≈ 39.1 µM) | 8 to 16 µg/mL | 8 µg/mL | 16 to 32 µg/mL | 8 to 16 µg/mL | – | – | 64 to 128 µg/mL | 64 µg/mL | Minimum Inhibitory Concentration (MIC) ([13]; MRSA, Gram positive): 128+ ug/mL; MBC ([13]; Methicillin resistant): 256 µg/mL (≈ 78.3 µM); Minimum Inhibitory Concentration (MIC) ([4]; S. aureus ATCC 29213, Gram positive): 128+ ug/mL
